Biological target: T1, Low molecular weight phosphotyrosine protein phosphatase (Homo sapiens, UniProt P24666)
T1 sequence (P24666 whole entry): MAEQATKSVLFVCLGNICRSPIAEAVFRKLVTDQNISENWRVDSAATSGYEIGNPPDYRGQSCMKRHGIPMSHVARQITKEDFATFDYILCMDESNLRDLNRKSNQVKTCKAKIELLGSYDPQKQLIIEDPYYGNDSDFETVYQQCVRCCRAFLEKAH
Experiment: LMPTP Primary Screening Protocol
Description: A listing of materials is provided: Item, source, catalog no. […] Prepare Reagents as described in section F. Recipe. 2. Using LabCyte Echo, transfer 60 nL from 2 mM test compound source plate into assay plate Col. 5-48 (final concentration of test compounds is 20 μM). 60 nL of DMSO should be transferred to col. 1-4 for positive and negative control wells. 3. Spin plates at 1000 rpm for 1 minute in centrifuge. 4. Using the Beckman Coulter Bioraptr, add 3 μL/well of control buffer to columns 1 and 2. 5. Using the Bioraptr, add 3 μL/well of enzyme solution to col. 3-48. 6. Using the Bioraptr, add 3 μL/well of substrate solution to col. 1-48. 7. Spin plates at 1000 rpm for 1 minute in centrifuge. 8. Incubate plates in the dark at room temperature for 50 minutes. 9. Read plates on PerkinElmer Viewlux using a FI protocol.

- IC50: > 5 µM
SMILES: CC(C)(C)OC(=O)C1(c2cc(NCCCC3CCCNC3)c3ccccc3n2)C=c2ccccc2=N1 (stereo unspecified) [US11220486, Compound I98]

Reference: BindingDB's records for patent US11220486 (LA JOLLA INSTITUTE OF ALLERGY & IMMUNOLOGY; SANFORD BURNHAM …, 2022)
